What all share (format): functional, organism-based
The species named for test [1] is Gallus gallus. Nature of the test: Inhibitory activity against second generation merozoids of Eimeria tenella in chick hepatocyte assay.
Test [2] is filed under the species Gallus gallus. Nature of the test: Inhibitory activity against second generation merozoids of Eimeria tenella in chick hepatocyte assay; value given as 0.2-1.0.
Test [3] is filed under the species Gallus gallus. Nature of the test: Inhibitory activity against second generation merozoids of Eimeria tenella in chick hepatocyte assay in the absence of inhibitor; value given as 0.004-0.0008.
Test [4] is filed under the species Gallus gallus. Nature of the test: Inhibitory activity against second generation merozoids of Eimeria tenella in chick hepatocyte assay in the presence of iproniazid; value given as 0.004-0.0008.
For test [5], the species on record is Gallus gallus. Nature of the test: Inhibitory activity against second generation merozoids of Eimeria tenella in chick hepatocyte assay in the presence of Tranylcypromine; value given as 0.004-0.0008.
For test [6], the species on record is Gallus gallus. Nature of the test: Inhibitory activity against second generation merozoids of Eimeria tenella in chick hepatocyte assay in the absence of inhibitor; value given as 0.2-1.0.
For test [7], the species on record is Gallus gallus. Nature of the test: Inhibitory activity against second generation merozoids of Eimeria tenella in chick hepatocyte assay in the presence of Ketoconazole at 5 ug/ml; value given as 0.2-1.0.
Test [8] is filed under the species Gallus gallus. Nature of the test: Inhibitory activity against second generation merozoids of Eimeria tenella in chick hepatocyte assay in the presence of SKF-525A at 5 ug/ml; value given as 0.2-1.0.
The species named for test [9] is Gallus gallus. Nature of the test: Inhibitory activity against second generation merozoids of Eimeria tenella in chick hepatocyte assay in the presence of alpha-naphthoflavone at 5 ug/ml; value given as 0.2-1.0.
Test [10] is filed under the species Gallus gallus. Nature of the test: Inhibitory activity against second generation merozoids of Eimeria tenella in chick hepatocyte assay in the presence of Tranylcypromine; Value given as 1-5.
For test [11], the species on record is Gallus gallus. Nature of the test: Inhibitory activity against second generation merozoids of Eimeria tenella in chick hepatocyte assay in the presence of iproniazid; Value given as 1-5.
The species named for test [12] is Gallus gallus. Nature of the test: Inhibitory activity against second generation merozoids of Eimeria tenella in chick hepatocyte assay in the absence of inhibitor; Value given as 0.08-0.016.
For test [13], the species on record is Gallus gallus. Nature of the test: Inhibitory activity against second generation merozoids of Eimeria tenella in chick hepatocyte assay in the presence of iproniazid; Value given as 0.08-0.016.
For test [14], the species on record is Gallus gallus. Nature of the test: Inhibitory activity against second generation merozoids of Eimeria tenella in chick hepatocyte assay in the presence of Tranylcypromine; Value given as 0.08-0.016.

Turning to `COc1cc(NCCCC/C=N/OCc2ccc([N+](=O)[O-])cc2)c2ncccc2c1`, the IC50 in the test listed under Gallus gallus [1] was over 1 p.p.m.

In the test listed under Gallus gallus [1], `COc1cc(NCCCCC(=O)O)c2ncccc2c1` had an IC50 of over 1 p.p.m.

Turning to `CO/N=C/CCCCNc1cc(OC)cc2cccnc12`, the IC50 in the test listed under Gallus gallus [2] came out at 0.2 p.p.m.

With `COc1cc(NCCCC/C=N/O)c2ncccc2c1`, the IC50 in the test filed under Gallus gallus [1] is on record as over 1 p.p.m.

`COc1cc(NCCCC2(C)OCCO2)c2ncccc2c1` had an IC50 in the test filed under Gallus gallus [1] of over 1 p.p.m.

On to `COc1cc(NCCCC2(c3ccc(F)cc3)OCCO2)c2ncccc2c1`, for which, in the test filed under Gallus gallus [2], the IC50 stood at 0.2 p.p.m.

Compound `COc1cc(NCCCC/C=N/Oc2ccccc2)c2ncccc2c1` showed an IC50 in the test filed under Gallus gallus [2] of 0.2 p.p.m.

`COc1cc(NCCCCC2OCCO2)c2ncccc2c1` returned an IC50 in the test listed under Gallus gallus [2] of 0.2 p.p.m.

Regarding `COc1cc(NCCCC2OCCO2)c2ncccc2c1`, the IC50 in the test listed under Gallus gallus [1] is over 1 p.p.m.

On to `COc1cc(NCCCC/C=N/OCC(=O)O)c2ncccc2c1`, for which the IC50 in the test filed under Gallus gallus [1] was over 1 p.p.m.

Regarding `COc1cc(NCCCC/C=N/OC(C)(C)C)c2ncccc2c1`, the IC50 in the test listed under Gallus gallus [2] worked out at 0.2 p.p.m.

Compound `COc1cc(NCCCCCO)c2ncccc2c1` came in with an IC50 in the test listed under Gallus gallus [1] of over 1 p.p.m.

Compound `C=CCO/N=C/CCCCNc1cc(OC)cc2cccnc12` yielded an IC50 in the test listed under Gallus gallus [2] of 0.2 p.p.m.

Consider `COc1cc(NCCCC/C=N/OC(=O)c2ccccc2)c2ncccc2c1`, for which the IC50 in the test listed under Gallus gallus [2] is on record as 0.2 p.p.m.

Compound `CCO/N=C/CCCCNc1cc(OC)cc2cccnc12` yielded an IC50 in the test listed under Gallus gallus [2] of 0.2 p.p.m.

`CCCCCCCCCCOc1cc2c(O)c(C(=O)OCC)cnc2cc1OCC` [DECOQUINATE]: the IC50 in the test filed under Gallus gallus [3], in the test listed under Gallus gallus [4] and in the test filed under Gallus gallus [5] was 0.0008 p.p.m each time.

In the case of `N#CC(c1ccc(Cl)cc1)c1c(Cl)cc(-n2ncc(=O)[nH]c2=O)cc1Cl` (stereo not given) [DICLAZURIL], the IC50 in the test listed under Gallus gallus [3], in the test listed under Gallus gallus [4] and in the test listed under Gallus gallus [5] was 0.0008 p.p.m in each case.

For `COc1cc(NCCCCCNC(C)C)c2ncccc2c1` [PENTAQUINE], the IC50 in the test filed under Gallus gallus [6] is on record as 0.2 p.p.m; in the test filed under Gallus gallus [7] it was 0.2 p.p.m; in the test filed under Gallus gallus [8] it was 0.2 p.p.m; in the test listed under Gallus gallus [9], 0.2 p.p.m; in the test listed under Gallus gallus [10], 1 p.p.m; in the test listed under Gallus gallus [11], 1 p.p.m.

For `CC[C@@H](C(=O)[C@@H](C)[C@@H](O)[C@H](C)[C@@H]1O[C@@H]([C@@H](CC)C(=O)O)CC[C@@H]1C)[C@H]1O[C@]2(C=C[C@@H](O)[C@]3(CC[C@@](C)([C@H]4CC[C@](O)(CC)[C@H](C)O4)O3)O2)[C@H](C)C[C@@H]1C` [SALINOMYCIN], the IC50 in the test listed under Gallus gallus [12], in the test filed under Gallus gallus [13] and in the test filed under Gallus gallus [14] was 0.016 p.p.m in each case.

The values are drawn from ChEMBL document CHEMBL1130837, “8-Aminoquinolines as anticoccidials--II” (Bioorg Med Chem Lett, 1998).
